The text below walks through data of US20040028760A1, “Method of treating inflammation and inflammation-related pain” (Michigan State University, priority 2002, published 2004).

In brackets after ≈: the same amount, converted by molar mass. Entries after “also recorded” stand apart in the source; their conditions may differ. Read-outs that look alike come from different tables or passages of the source.

The target of experiment [1] is T1, prostaglandin H endoperoxide synthase-I (COX-I) (Ovis aries, UniProt P05979).
T1 construct: was prepared from ram seminal vesicles; from tissue; host or cells: ram seminal vesicles
T1 sequence (P05979 25-600): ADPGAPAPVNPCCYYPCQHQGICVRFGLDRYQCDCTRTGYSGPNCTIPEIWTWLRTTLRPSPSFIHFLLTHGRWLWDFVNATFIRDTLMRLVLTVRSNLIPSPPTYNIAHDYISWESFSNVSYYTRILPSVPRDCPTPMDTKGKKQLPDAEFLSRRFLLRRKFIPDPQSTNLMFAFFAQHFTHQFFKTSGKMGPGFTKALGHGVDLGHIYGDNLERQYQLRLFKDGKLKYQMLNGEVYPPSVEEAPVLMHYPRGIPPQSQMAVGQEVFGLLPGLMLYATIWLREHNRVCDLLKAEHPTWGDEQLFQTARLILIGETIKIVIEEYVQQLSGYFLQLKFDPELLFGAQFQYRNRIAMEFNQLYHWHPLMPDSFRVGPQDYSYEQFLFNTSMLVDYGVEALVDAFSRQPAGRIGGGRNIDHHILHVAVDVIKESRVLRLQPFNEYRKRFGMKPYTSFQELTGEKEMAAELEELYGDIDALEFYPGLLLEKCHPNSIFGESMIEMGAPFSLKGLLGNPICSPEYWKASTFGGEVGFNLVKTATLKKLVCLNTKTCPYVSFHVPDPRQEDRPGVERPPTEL
The experiment in a line: Cyclooxygenase inhibitory assay (initial rate of O2 uptake), COX-I. The format is biochemical, ram. The note with it: for inhibition at 100 µg/mL: read-out: COX-I inhibitory activity. As to the method:
(§1) Prostaglandin H synthase isozymes-I (PGHS-I or COX-I) was prepared from ram seminal vesicles. PGHS-II or COX-II enzyme for the assay was prepared from lysates of cloned insect cell with human PGHS-II enzyme. Each assay mixture contained 600 μL of 0.1 M Tris buffer (pH 7), 1 mM phenol, 17 μg hemoglobin and 10 μL of COX-I or 20-30 μL of COX-II enzymes. Crude extracts or pure compounds were preincubated with 25-100 μg mL^−1 in DMSO for 5-minutes with COX-I or COX-II enzymes in the assay chamber at 37° C. […] Instantaneous inhibition of the enzyme was determined by monitoring the initial rate of O2 uptake using an O2 electrode.

Experiment [2] has as its target T2, human PGHS-II (COX-II) enzyme (Homo sapiens, UniProt P35354).
T2 construct: made in house; host or cells: insect cells (lysates)
T2 sequence (P35354 18-604): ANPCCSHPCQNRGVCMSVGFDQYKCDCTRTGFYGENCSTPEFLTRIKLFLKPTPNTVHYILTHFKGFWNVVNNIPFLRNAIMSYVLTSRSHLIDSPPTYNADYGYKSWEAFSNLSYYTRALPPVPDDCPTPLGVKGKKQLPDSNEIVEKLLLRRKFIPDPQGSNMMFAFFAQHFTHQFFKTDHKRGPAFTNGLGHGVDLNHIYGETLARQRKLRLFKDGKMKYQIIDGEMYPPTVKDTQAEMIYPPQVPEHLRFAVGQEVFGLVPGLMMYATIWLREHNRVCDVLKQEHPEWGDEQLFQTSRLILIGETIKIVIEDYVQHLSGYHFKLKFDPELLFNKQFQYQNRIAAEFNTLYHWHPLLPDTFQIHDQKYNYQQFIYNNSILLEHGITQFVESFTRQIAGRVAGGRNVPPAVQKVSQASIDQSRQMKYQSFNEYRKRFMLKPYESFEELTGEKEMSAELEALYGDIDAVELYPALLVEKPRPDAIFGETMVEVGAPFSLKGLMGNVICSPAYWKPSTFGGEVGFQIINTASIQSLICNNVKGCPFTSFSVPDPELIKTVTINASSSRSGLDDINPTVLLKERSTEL
The experiment can be described thus: Cyclooxygenase inhibitory assay (initial rate of O2 uptake), COX-II. The format is biochemical. As to the method: as §1

The test system of experiment [3] is COX-I. To be noted: less than 500 μM; cited from earlier work.
The target of experiment [4] is T3, COX-II (Ovis aries, UniProt P79208).
T3 sequence (P79208 17-603): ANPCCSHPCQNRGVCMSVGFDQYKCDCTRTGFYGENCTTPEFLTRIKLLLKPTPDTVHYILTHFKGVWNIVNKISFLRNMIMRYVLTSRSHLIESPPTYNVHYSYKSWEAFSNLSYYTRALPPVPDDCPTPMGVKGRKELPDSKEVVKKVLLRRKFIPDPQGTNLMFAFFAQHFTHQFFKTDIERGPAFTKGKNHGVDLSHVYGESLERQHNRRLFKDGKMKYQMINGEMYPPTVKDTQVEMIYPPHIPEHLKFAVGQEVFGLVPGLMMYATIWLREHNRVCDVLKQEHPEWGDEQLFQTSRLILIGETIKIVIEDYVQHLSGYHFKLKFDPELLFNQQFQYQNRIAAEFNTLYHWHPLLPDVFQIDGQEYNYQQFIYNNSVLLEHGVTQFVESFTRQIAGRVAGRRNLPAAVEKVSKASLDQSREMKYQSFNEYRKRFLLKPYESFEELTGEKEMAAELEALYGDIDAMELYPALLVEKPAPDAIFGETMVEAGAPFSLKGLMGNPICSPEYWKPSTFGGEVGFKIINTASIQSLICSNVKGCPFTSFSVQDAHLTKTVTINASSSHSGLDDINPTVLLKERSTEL
The note with it: less than 500 μM; cited from earlier work.

Experiment [5] concerns the target T4, cyclooxygenase.
T4 construct: "prepared from ram seminal vesicles"
The format is biochemical. As to the method:
as §1

Setting [6] is: 100 μg mL^−1, compared to solvent control.

For the compound `COc1cc(OC)c(C(=O)O)cc1OC` [2,4,5-trimethoxybenzoicacid, reference compound], the “COX-I inhibition (result in words)” value in experiment [1] (100 μg mL^−1) was “didn't exhibit any inhibition”. Also, the “COX-II inhibition (result in words)” value in experiment [2] (100 μg mL^−1) is recorded as “didn't exhibit any inhibition”.

On to `COc1cc(OC)c(OC)cc1C=O` [Compound 1, 2,4,5-trimethoxybenzaldehyde], for which the inhibition at 100 µg/mL in experiment [1] is 3.32%; in experiment [2] (100 μg mL^−1), 52.7%. Also, the inhibition at 25 µg/mL in experiment [2] (25 μg mL^−1) was over 30%. Moreover, in experiment [2] (100 μg mL^−1, COX-II versus COX-I), the “selectivity towards COX-II enzyme inhibition (in words)” value is reported as “selectivity towards COX-II enzyme inhibition; also recorded: selective inhibition of COX-II enzyme”. The COX-II/COX-I ratio in experiment [2] (setting [6]) is given as 17.68.

Regarding `CCCCCCCC/C=C\CCCCCCCC(=O)O` [Compound 2, oleic acid], the “COX-I inhibition (in words)” value in experiment [3] is given as “not COX-I or COX-II inhibitory”. Besides, the inhibition at 100 µg/mL in experiment [1] (100 μg mL^−1) was 45.3%; in experiment [2] (100 μg mL^−1), 68.4%. The “COX-II inhibition (in words)” value in experiment [4] is “not COX-I or COX-II inhibitory”. Also, the COX-II/COX-I ratio in experiment [2] (setting [6]) was determined as 1.51.

Turning to `C/C=C/c1cc(OC)c(OC)cc1OC` [Compound 3, trans-asarone], the COX-I inhibitory activity in experiment [1] (100 μg mL^−1) came out at 46.15%. For the same compound, the COX-II inhibitory activity in experiment [2] (100 μg mL^−1) came to 64.39%. Also, the COX-II/COX-I ratio in experiment [2] (setting [6]) stood at 1.4.

On to `CC(C)=CCC/C(C)=C/CO` [Compound 4, geraniol], for which, in experiment [1] (100 μg mL^−1), the “COX-I inhibition (result in words)” value is on record as “not active; also recorded: did not inhibit” and the inhibition at 100 µg/mL was 3.15%. For the same compound, in experiment [2] (100 μg mL^−1), the “COX-II inhibition (result in words)” value was “not active; also recorded: did not inhibit” and the inhibition at 100 µg/mL was 0%.

`CC(C)Cc1ccc(C(C)C(=O)O)cc1` (stereo not drawn) [Ibuprofen]: in experiment [5], the IC50 values was found to be 2.52 µg/mL (≈ 12.2 µM).

Consider `COc1ccc2cc([C@H](C)C(=O)O)ccc2c1` [Naproxen, reference compound], for which the IC50 values in experiment [5] (concentration at which the reference drug was assayed, isozyme not stated) came to 2.06 µg/mL (≈ 8.95 µM). The COX-II/COX-I ratio in experiment [2] is recorded as 0.92.

For the compound `COc1cc(OC)c(OC)cc1C=O` [Synthetic 2,4,5-trimethoxybenzaldehyde, 2,4,5-trimethoxybenzaldehyde, reference compound], the “COX-II inhibition of commercial synthetic sample versus natural product (in words)” value in experiment [2] (25-100 μg mL^−1) is “slightly lower COX-II activity than natural form”.

Take `CS(=O)(=O)c1ccc(C2=C(c3ccccc3)C(=O)OC2)cc1` [Vioxx, reference compound]: the COX-II/COX-I ratio in experiment [2] amounted to 75.
